What was measured:
AR [1] = assay: Nuclear and cytoplasmic fractionation with western blot, AR nuclear localization in C4-2 cells; assay type: cell-based, human; conditions: nuclear fraction normalized with topoisomerase, FIG. 1B
Description: In order to address the role of AhR and SRC in this process, a sub-cellular localization was confirmed by immunoblotting following cellular fractionation. […] Cells were washed with cold PBS and cellular fractions were isolated per manufactures instructions using a NE-PER Extraction kit. The nuclear and cytoplasmic fractions were analyzed by western blotting for AhR and AR protein expression. The relative level of cytoplasmic AhR & AR were normalized with β-tubulin expression and the relative level of nuclear AhR & AR were normalized with topoisomerase expression. Blots are representative of three independent experiments.

AhR [2] = assay: Cignal XRE luciferase reporter assay in C4-2 cells; assay type: cell-based, human; conditions: C4-2 cells transfected with XRE reporter, FIG. 2A
Description: XRE and ARE Binding: 4×10^4 Cells were plated in a 96 well plate. C4-2 cells were transfected with XRE and ARE reporter, as well as with positive and negative control reporter plasmids using attractene. After 16 hours of transfection, media was changed to standard assay media (DMEM+0.5% FBS+0.1 mM NEAA). Cells were grown for an additional 8 hours under normal cell conditions. After 24 hours of transfection, treat the cells and harvested cells 18 hours after treatment. A dual luciferase assay was performed after 42 hours of transfection, and promoter activity values are expressed as arbitrary florescence units (AFU). Experiments were performed in triplicate and the standard error is indicated.
The Cignal XRE and ARE luciferase reporter assays were utilized to determine the activity of AhR and AR signaling pathways in androgen independent (C4-2) prostate cancer cells in the presence and absence of inhibitors. C4-2 cells were transfected with an XRE reporter plasmid & ARE reporter plasmid, as well as with positive and negative control reporter plasmids using attractene. Following transfection, treatments were added to each appropriate plate. A dual luciferase assay was performed and promoter activity values are expressed as arbitrary florescence units (AFU).

AR [3] = assay: Cignal ARE luciferase reporter assay in C4-2 cells; assay type: cell-based, human; conditions: C4-2 cells transfected with ARE reporter, FIG. 2B
Description: The Cignal XRE and ARE luciferase reporter assays were utilized to determine the activity of AhR and AR signaling pathways in androgen independent (C4-2) prostate cancer cells in the presence and absence of inhibitors. C4-2 cells were transfected with an XRE reporter plasmid & ARE reporter plasmid, as well as with positive and negative control reporter plasmids using attractene. Following transfection, treatments were added to each appropriate plate. A dual luciferase assay was performed and promoter activity values are expressed as arbitrary florescence units (AFU). Each bar represents mean±SEM (n=3) and were analyzed by student t-test. (*) denotes statistically significant differences (*P<0.0001).

[4] = test system: C4-2 prostate cancer cells; assay: Promega CellTiter 96 Cell Proliferation Assay; assay type: cell-based, human; conditions: 50 μM CH223191, 30 μM PP2 alone or in combination
[5] = test system: C4-2 prostate cancer cells; assay: Cell cycle analysis; assay type: cell-based, human; conditions: C4-2 cells, 72 hrs; 50 μM CH223191, 30 μM PP2 alone or in combination, FIG. 4B
AhR [6] = target: T1, AhR (Homo sapiens, UniProt P35869); conditions: even at 100 micromolar; cited from earlier work
T1 sequence (P35869 11-848): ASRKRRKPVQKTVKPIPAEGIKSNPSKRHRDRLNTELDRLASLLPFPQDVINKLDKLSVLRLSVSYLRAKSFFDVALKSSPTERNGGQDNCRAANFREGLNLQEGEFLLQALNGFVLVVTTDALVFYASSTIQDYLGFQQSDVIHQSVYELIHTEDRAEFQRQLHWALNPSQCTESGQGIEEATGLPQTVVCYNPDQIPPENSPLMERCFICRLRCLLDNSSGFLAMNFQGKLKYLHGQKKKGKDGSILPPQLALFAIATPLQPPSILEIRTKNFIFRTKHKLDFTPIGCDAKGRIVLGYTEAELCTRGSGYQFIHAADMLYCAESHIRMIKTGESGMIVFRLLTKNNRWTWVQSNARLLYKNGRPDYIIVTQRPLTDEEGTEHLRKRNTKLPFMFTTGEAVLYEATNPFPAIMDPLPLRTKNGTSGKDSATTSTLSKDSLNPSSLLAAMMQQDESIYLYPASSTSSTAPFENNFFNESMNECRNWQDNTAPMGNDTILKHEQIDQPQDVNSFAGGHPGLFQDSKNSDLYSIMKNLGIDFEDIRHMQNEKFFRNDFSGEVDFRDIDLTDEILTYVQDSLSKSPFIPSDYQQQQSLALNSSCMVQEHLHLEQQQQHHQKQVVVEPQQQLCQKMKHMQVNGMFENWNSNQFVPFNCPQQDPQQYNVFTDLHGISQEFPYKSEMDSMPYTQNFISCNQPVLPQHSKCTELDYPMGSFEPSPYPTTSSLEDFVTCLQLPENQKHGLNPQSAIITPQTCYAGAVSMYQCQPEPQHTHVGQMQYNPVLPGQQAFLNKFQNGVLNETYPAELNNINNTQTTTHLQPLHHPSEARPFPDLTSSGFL

AhR [7] = target: T1, AhR; conditions: cited from earlier work
estrogen receptor = target: T2, estrogen receptor (Homo sapiens, UniProt P03372); conditions: cited from earlier work
T2 sequence (P03372 1-595): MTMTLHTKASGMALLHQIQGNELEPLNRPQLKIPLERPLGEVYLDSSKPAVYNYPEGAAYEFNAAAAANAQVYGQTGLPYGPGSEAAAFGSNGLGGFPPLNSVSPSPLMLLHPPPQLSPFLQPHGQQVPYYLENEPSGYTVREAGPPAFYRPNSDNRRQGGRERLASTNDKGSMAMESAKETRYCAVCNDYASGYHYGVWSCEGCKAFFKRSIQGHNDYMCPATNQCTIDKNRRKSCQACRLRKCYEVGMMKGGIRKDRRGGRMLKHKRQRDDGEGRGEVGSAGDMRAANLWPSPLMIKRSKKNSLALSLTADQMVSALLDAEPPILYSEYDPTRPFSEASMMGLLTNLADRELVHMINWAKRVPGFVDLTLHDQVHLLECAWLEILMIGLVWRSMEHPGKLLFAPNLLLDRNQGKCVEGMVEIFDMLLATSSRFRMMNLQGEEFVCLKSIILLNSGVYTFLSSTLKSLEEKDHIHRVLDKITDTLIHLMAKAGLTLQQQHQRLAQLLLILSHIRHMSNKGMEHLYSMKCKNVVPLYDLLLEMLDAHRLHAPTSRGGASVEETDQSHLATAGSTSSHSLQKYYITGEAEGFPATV

AR [8] = assay: qRT-PCR of AR mRNA expression in C4-2 cells; conditions: 50 μM CH223191 or 30 μM PP2 alone or in combination, 72 h, normalized to L-19
Description: (§1) RNA Extraction and Quantitative qRT-PCR Analysis: Total RNA was isolated from cell monolayers grown in 100 mm tissue culture dishes using RNeasy Mini Kit (Qiagen). 2 μg of the total RNA was reverse-transcribed using the Superscript II kit (Invitrogen), according to the manufacturer's recommendations. The cDNA served as a template in a 25 μl reaction mixture and was processed using the following protocol: an initial denaturation at 95° C. for 3 min, followed by 39 amplification cycles (95° C. for 10 s and 55-65° C. for 30 s), 95° C. for 10 s, 65° C. for 5 s and 95° C. for 50 s. The 25 μl qPCR reaction mixture was mixed with GoTaq qPCR Master Mix (Promega). Melt curve analyses were performed after each run to ensure a single product. Relative gene expression was determined using the ΔΔCq calculation method.
(§2) Primers to amplify the 470-bp cDNA fragment encoding L19 were used as an internal control. L-19: Forward (5′-3′) [sequence] & Reverse (5′-3′) [sequence].
(§3) Each bar represents mean±SEM (n=3) and were analyzed by student t-test. (*) denotes statistically significant differences (*P<0.05) compared to control.

AhR [9] = assay: qRT-PCR of AhR mRNA expression in C4-2 cells; conditions: 50 μM CH223191 or 30 μM PP2 alone or in combination, 72 h, normalized to L-19
Description: as §1, §2, §3

KLK3 = conditions: C4-2 cells, 50 μM CH223191 or 30 μM PP2 alone or in combination, 72 h, normalized to L-19
Description: as §1, §2, §3

CYP1B1 = assay: qRT-PCR of CYP1B1 mRNA expression in C4-2 cells; conditions: 50 μM CH223191 or 30 μM PP2 alone or in combination, 72 h, normalized to L-19
Description: as §1, §2, §3

For `Cc1ccccc1/N=N/c1ccc(NC(=O)c2ccnn2C)c(C)c1` [CH223191, 2-Methyl-2H-pyrazole-3-carboxylic acid (2-methyl-4-o-tolylazo-phenyl)-amide], the “presence of AR in the nucleus (AR nuclear localization)” value (AR [1]) was “reduced”, the “decrease in AhR promoter activity (XRE binding) compared to DMSO” value (AhR [2]) was 30% and the “reduction of AR promoter activity compared to DMSO in ARE binding assay” value (AR [3]) was 70%. The “growth of C4-2 cells” value ([4]; 48 and 72 hours) was “significantly inhibited”, the “decrease in overall growth rate compared to DMSO” value ([4]; after 72 hours of exposure) was 25% and the “percent of cells in the G0/G1 phase of the cell cycle” value [5] was “increase”. The “stimulation of AhR-dependent transcription (agonist activity)” value (AhR [6]) was “did not stimulate”, the “TCDD-mediated nuclear translocation and DNA binding of AhR” value (AhR [7]) was “inhibited” and the “affinity for the estrogen receptor” value (estrogen receptor) was “no affinity”. The “reduction of AR gene expression” value (AR [8]) was 60%, the “reduction of AhR gene expression compared to control” value (AhR [9]) was “more than twofold” and the “decrease in KLK3 mRNA expression” value (KLK3) was 65%. The “reduction of CYP1B1 gene expression compared to control” value (CYP1B1) was “more than twofold”.

From patent US11103518B2, “Prostate cancer treatment via synergistic inhibition of aryl hydrocarbon receptor (AhR) and SRC” (Clark Atlanta University, Inc., priority 2016, dated 2021)
